Target: T1, SHP2 protein (Homo sapiens, UniProt Q06124)
T1 sequence (Q06124 1-593): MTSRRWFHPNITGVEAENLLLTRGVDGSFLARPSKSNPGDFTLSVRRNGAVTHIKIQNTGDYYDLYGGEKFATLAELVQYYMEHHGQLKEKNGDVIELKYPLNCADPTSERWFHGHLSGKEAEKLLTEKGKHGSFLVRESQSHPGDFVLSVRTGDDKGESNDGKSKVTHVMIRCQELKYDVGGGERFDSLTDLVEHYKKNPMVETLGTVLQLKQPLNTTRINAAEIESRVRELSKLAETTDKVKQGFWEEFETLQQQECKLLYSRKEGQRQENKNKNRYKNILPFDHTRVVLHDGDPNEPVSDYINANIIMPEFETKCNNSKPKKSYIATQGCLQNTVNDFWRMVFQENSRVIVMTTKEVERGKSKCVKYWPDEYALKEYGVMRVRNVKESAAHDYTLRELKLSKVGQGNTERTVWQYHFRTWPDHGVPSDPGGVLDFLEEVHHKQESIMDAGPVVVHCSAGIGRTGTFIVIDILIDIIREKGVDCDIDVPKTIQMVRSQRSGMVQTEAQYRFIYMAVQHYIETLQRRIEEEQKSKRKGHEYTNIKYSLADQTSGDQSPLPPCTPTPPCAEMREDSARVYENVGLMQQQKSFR
Experiment: Measurement of SHP2 protein degradation in MV-4-11 cells (western blotting)
Assay type: cell-based
Parameters: endogenous in cells; host or cells: MV-4-11
Conditions: for SHP2 degradation (%) 10 nM / SHP2 degradation (%) 100 nM / SHP2 degradation (%) 1000 nM: MV-4-11 cells, 24 hours
Procedure, shortened: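 SHP2 protein levels were assessed by western blotting in MV-4-11 cells after a 24 hour compound treatment. Lysates were sonicated, centrifuged, normalized by BCA assay at 562 nm, run on Bis-tris 4-12% gels, transferred to NC membrane, probed with anti-SHPTP2 (70 kDa) and anti-GAPDH (37 kDa) antibodies, and detected on LI-COR Odyssey.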

Compound	SHP2 degradation (%) 10 nM [%]	SHP2 degradation (%) 100 nM [%]	SHP2 degradation (%) 1000 nM [%]	SHP2 protein degradation activity (in words) (comment on Table 4)
Cc1ncsc1-c1ccc(CNC(=O)[C@@H]2C[C@@H](O)CN2C(=O)[C@@H](NC(=O)C2(F)CC2)C(C)(C)C)c(OCCN2CCN(C(=O)CC(=O)Nc3cccc(Sc4cnc(N5CCC(C)(CN)CC5)cn4)c3Cl)C[C@H]2C(=O)O)c1 [Example 69, (S)-4-(3-((3-((5-(4-(aminomethyl)-4-methylpiperidin-1-yl)pyrazin-2-yl)thio)-2-chlorophenyl)amino)-3-oxopropanoyl)-1-(2-(2-(((2S,4R)-1-((S)-2-(1-fluorocyclopropane-1-carboxamido)-3,3-dimethylbutanoyl)-4-hydroxypyrrolidine-2-carboxamido)methyl)-5-(4-methylthiazol-5-yl)phenoxy)ethyl)piperazine-2-carboxylic Acid]	20	81.9	–	–
Cc1ncsc1-c1ccc(CNC(=O)[C@@H]2C[C@@H](O)CN2C(=O)[C@@H](NC(=O)C2(F)CC2)C(C)(C)C)c(OCCCN2CCN(C(=O)CC(=O)Nc3cccc(Sc4cnc(N5CCC(C)(CN)CC5)cn4)c3Cl)[C@@H](C)C2)c1 [Example 64, (2S,4R)—N-(2-(3-((S)-4-(3-((3-((5-(4-(aminomethyl)-4-methylpiperidin-1-yl)pyrazin-2-yl)thio)-2-chlorophenyl)amino)-3-oxopropanoyl)-3-methylpiperazin-1-yl)propoxy)-4-(4-methylthiazol-5-yl)benzyl)-1-((S)-2-(1-fluorocyclopropane-1-carboxamido)-3,3-dimethylbutanoyl)-4-hydroxypyrrolidine-2-carboxamide]	45.9	96.6	–	–
Cc1ncsc1-c1ccc(CNC(=O)[C@@H]2C[C@@H](O)CN2C(=O)[C@@H](NC(=O)C2(F)CC2)C(C)(C)C)c(OCCNC(=O)c2cnc(N3CCC(CCCC(=O)Nc4cccc(Sc5cnc(N6CCC(C)(CN)CC6)cn5)c4Cl)CC3)nc2)c1 [Example 89, 2-(4-(4-((3-((5-(4-(aminomethyl)-4-methylpiperidin-1-yl)pyrazin-2-yl)thio)-2-chlorophenyl)amino)-4-oxobutyl)piperidin-1-yl)-N-(2-(2-(((2S,4R)-1-((S)-2-(1-fluorocyclopropane-1-carboxamido)-3,3-dimethylbutanoyl)-4-hydroxypyrrolidine-2-carboxamido)methyl)-5-(4-methylthiazol-5-yl)phenoxy)ethyl)pyrimidine-5-carboxamide]	4	95	97	–
Cc1ncsc1-c1ccc(CNC(=O)[C@@H]2C[C@@H](O)CN2C(=O)[C@@H](NC(=O)C2(F)CC2)C(C)(C)C)c(OCCCC2CCN(C(=O)C(=O)Nc3cccc(Sc4cnc(N5CCC(C)(CN)CC5)cn4)c3Cl)CC2)c1 [Example 28, (2S,4R)—N-(2-(3-(1-(2-((3-((5-(4-(aminomethyl)-4-methylpiperidin-1-yl)pyrazin-2-yl)thio)-2-chlorophenyl)amino)-2-oxoacetyl)piperidin-4-yl)propoxy)-4-(4-methylthiazol-5-yl)benzyl)-1-((S)-2-(1-fluorocyclopropane-1-carboxamido)-3,3-dimethylbutanoyl)-4-hydroxypyrrolidine-2-carboxamide]	19	76.5	94	–
Cc1ncsc1-c1ccc(CNC(=O)[C@@H]2C[C@@H](O)CN2C(=O)[C@@H](NC(=O)C2(F)CC2)C(C)(C)C)c(OCCC2CCN(C(=O)CCC(=O)Nc3cccc(Sc4cnc(N5CCC(C)(CN)CC5)cn4)c3Cl)CC2)c1 [Example 45, (2S,4R)—N-(2-(2-(1-(4-((3-((5-(4-(aminomethyl)-4-methylpiperidin-1-yl)pyrazin-2-yl)thio)-2-chlorophenyl)amino)-4-oxobutanoyl)piperidin-4-yl)ethoxy)-4-(4-methylthiazol-5-yl)benzyl)-1-((S)-2-(1-fluorocyclopropane-1-carboxamido)-3,3-dimethylbutanoyl)-4-hydroxypyrrolidine-2-carboxamide]	68.0	91.0	93.0	–
Cc1ncsc1-c1ccc(CNC(=O)[C@@H]2C[C@@H](O)CN2C(=O)[C@@H](NC(=O)C2(F)CC2)C(C)(C)C)c(OCCCN2CCN(CC(=O)Nc3cccc(Sc4cnc(N5CCC(C)(CN)CC5)cn4)c3Cl)C(=O)C2)c1 [Example 77, (2S,4R)—N-(2-(3-(4-(2-((3-((5-(4-(aminomethyl)-4-methylpiperidin-1-yl)pyrazin-2-yl)thio)-2-chlorophenyl)amino)-2-oxoethyl)-3-oxopiperazin-1-yl)propoxy)-4-(4-methylthiazol-5-yl)benzyl)-1-((S)-2-(1-fluorocyclopropane-1-carboxamido)-3,3-dimethylbutanoyl)-4-hydroxypyrrolidine-2-carboxamide]	92.4	99.5	–	–
Cc1ncsc1-c1ccc(CNC(=O)[C@@H]2C[C@@H](O)CN2C(=O)[C@@H](NC(=O)C2(F)CC2)C(C)(C)C)c(OCCC2CCN(C(=O)C(C)(C)C(=O)Nc3cccc(Sc4cnc(N5CCC(C)(CN)CC5)cn4)c3Cl)CC2)c1 [Example 49, (2S,4R)—N-(2-(2-(1-(3-((3-((5-(4-(aminomethyl)-4-methylpiperidin-1-yl)pyrazin-2-yl)thio)-2-chlorophenyl)amino)-2,2-dimethyl-3-oxopropanoyl)piperidin-4-yl)ethoxy)-4-(4-methylthiazol-5-yl)benzyl)-1-((S)-2-(1-fluorocyclopropane-1-carboxamido)-3,3-dimethylbutanoyl)-4-hydroxypyrrolidine-2-carboxamide]	4.0	10.6	–	somewhat decreased
Cc1ncsc1-c1ccc(CNC(=O)[C@@H]2C[C@@H](O)CN2C(=O)[C@@H](NC(=O)C2(F)CC2)C(C)(C)C)c(OCCN2CCN(c3ccc(C(=O)Nc4cccc(Sc5cnc(N6CCC(C)(CN)CC6)cn5)c4Cl)nc3)CC2)c1 [Example 81, N-(3-((5-(4-(aminomethyl)-4-methylpiperidin-1-yl)pyrazin-2-yl)thio)-2-chlorophenyl)-5-(4-(2-(2-(((2S,4R)-1-((S)-2-(1-fluorocyclopropane-1-carboxamido)-3,3-dimethylbutanoyl)-4-hydroxypyrrolidine-2-carboxamido)methyl)-5-(4-methylthiazol-5-yl)phenoxy)ethyl)piperazin-1-yl)picolinamide]	22.7	93.2	–	–
Cc1ncsc1-c1ccc(CNC(=O)[C@@H]2C[C@@H](O)CN2C(=O)[C@@H](NC(=O)C2(F)CC2)C(C)(C)C)c(OCCCC2CCN(C(=O)CC(=O)Nc3cccc(Sc4cnc(N5CCC(C)(CN)CC5)cn4)c3Cl)CC2)c1 [Example 41, (2S,4R)—N-(2-(3-(1-(3-((3-((5-(4-(aminomethyl)-4-methylpiperidin-1-yl)pyrazin-2-yl)thio)-2-chlorophenyl)amino)-3-oxopropanoyl)piperidin-4-yl)propoxy)-4-(4-methylthiazol-5-yl)benzyl)-1-((S)-2-(1-fluorocyclopropane-1-carboxamido)-3,3-dimethylbutanoyl)-4-hydroxypyrrolidine-2-carboxamide]	77.0	92.5	91.5	–
CC(=O)N[C@H](C(=O)N1C[C@H](O)C[C@H]1C(=O)NCc1ccc(-c2scnc2C)cc1OCC1CCN(C(=O)CC(=O)Nc2cccc(Sc3cnc(N4CCC(C)(CN)CC4)cn3)c2Cl)CC1)C(C)(C)C [Example 33, (2S,4R)-1-((S)-2-acetamido-3,3-dimethylbutanoyl)-N-(2-((1-(3-((3-((5-(4-(aminomethyl)-4-methylpiperidin-1-yl)pyrazin-2-yl)thio)-2-chlorophenyl)amino)-3-oxopropanoyl)piperidin-4-yl)methoxy)-4-(4-methylthiazol-5-yl)benzyl)-4-hydroxypyrrolidine-2-carboxamide]	90	96.5	–	–
Cc1ncsc1-c1ccc(CNC(=O)[C@@H]2C[C@@H](O)CN2C(=O)[C@@H](NC(=O)C2(F)CC2)C(C)(C)C)c(OCCCN2CCC(CC(=O)Nc3cccc(Sc4cnc(N5CCC(C)(N)CC5)cn4)c3Cl)CC2)c1 [Example 8, (2S,4R)—N-(2-(3-(4-(2-((3-((5-(4-amino-4-methylpiperidin-1-yl)pyrazin-2-yl)thio)-2-chlorophenyl)amino)-2-oxoethyl)piperidin-1-yl)propoxy)-4-(4-methylthiazol-5-yl)benzyl)-1-((S)-2-(1-fluorocyclopropane-1-carboxamido)-3,3-dimethylbutanoyl)-4-hydroxypyrrolidine-2-carboxamide]	39.5	92.6	96.5	–

From patent US20250230154A1, “COMPOUND HAVING SHP2 PROTEIN DEGRADING ACTIVITY, AND MEDICAL USES THEREOF” (UBIX THERAPEUTICS, INC., priority 2021, published 2025)
